Test results published in ChEMBL document CHEMBL3046012, “Synthesis and Cytotoxic Activity of 6-(Substituted-Phenyl)Amino-5,8-Quinazolinediones” (Med Chem Res, 2004).
Converted amounts (≈) assume the structure as drawn.

How the values were obtained:
Type in all cases: functional, cell-based
[1] = system: XF498; test: Cytotoxicity against Homo sapiens (human) XF498 cells after 72 hr by MTT assay; conditions: XF498, 72 h
[2] = system: HCT-15; test: Cytotoxicity against Homo sapiens (human) HCT15 cells after 72 hr by MTT assay; conditions: HCT-15, 72 h
[3] = system: SK-OV-3; test: Cytotoxicity against Homo sapiens (human) SKOV3 cells after 72 hr by MTT assay; conditions: SK-OV-3, 72 h
[4] = system: SK-MEL-2; test: Cytotoxicity against Homo sapiens (human) SK-MEL-2 cells after 72 hr by MTT assay; conditions: SK-MEL-2, 72 h
[5] = system: A549; test: Cytotoxicity against Homo sapiens (human) A549 cells after 72 hr by MTT assay; conditions: A549, 72 h

Structure (SMILES) | IC50 [1] | IC50 [2] | IC50 [3] | IC50 [4] | IC50 [5]
O=C1C(Nc2ccc(Cl)cc2)=CC(=O)c2ncncc21 | 0.01 µg/mL (≈ 0.035 µM) | < 0.01 µg/mL | 0.01 µg/mL (≈ 0.035 µM) | 0.01 µg/mL (≈ 0.035 µM) | 0.02 µg/mL (≈ 0.07 µM)
O=C1C(Cl)=C(Nc2ccc(F)cc2)C(=O)c2cnccc21 | 1.54 µg/mL (≈ 5.09 µM) | 0.31 µg/mL (≈ 1.02 µM) | 1.86 µg/mL (≈ 6.14 µM) | 1.22 µg/mL (≈ 4.03 µM) | 1.27 µg/mL (≈ 4.2 µM)
O=C1C(Nc2ccc(Br)cc2)=CC(=O)c2ncncc21 | 0.03 µg/mL (≈ 0.0909 µM) | 0.01 µg/mL (≈ 0.0303 µM) | 0.02 µg/mL (≈ 0.0606 µM) | 0.02 µg/mL (≈ 0.0606 µM) | 0.09 µg/mL (≈ 0.273 µM)
O=C1C(Nc2ccc(OC(F)(F)F)cc2)=C(Cl)C(=O)c2ncncc21 | 0.23 µg/mL (≈ 0.622 µM) | 0.22 µg/mL (≈ 0.595 µM) | 0.27 µg/mL (≈ 0.73 µM) | 0.29 µg/mL (≈ 0.784 µM) | 0.37 µg/mL (≈ 1 µM)
O=C1C(Nc2ccc(I)cc2)=CC(=O)c2ncncc21 | 0.04 µg/mL (≈ 0.106 µM) | 0.01 µg/mL (≈ 0.0265 µM) | 0.04 µg/mL (≈ 0.106 µM) | 0.02 µg/mL (≈ 0.053 µM) | 0.27 µg/mL (≈ 0.716 µM)
O=C1C(Nc2ccc(F)cc2)=C(Cl)C(=O)c2ncccc21 | 0.36 µg/mL (≈ 1.19 µM) | 0.18 µg/mL (≈ 0.595 µM) | 0.5 µg/mL (≈ 1.65 µM) | 1.39 µg/mL (≈ 4.59 µM) | 1.25 µg/mL (≈ 4.13 µM)
O=C1C(Cl)=C(Nc2ccc(I)cc2)C(=O)c2cnccc21 | 0.04 µg/mL (≈ 0.0974 µM) | 0.01 µg/mL (≈ 0.0244 µM) | 0.04 µg/mL (≈ 0.0974 µM) | 0.02 µg/mL (≈ 0.0487 µM) | 0.27 µg/mL (≈ 0.658 µM)
O=C1C(Nc2ccc(Br)cc2)=C(Cl)C(=O)c2ncccc21 | 2.83 µg/mL (≈ 7.78 µM) | 0.34 µg/mL (≈ 0.935 µM) | 0.92 µg/mL (≈ 2.53 µM) | 1.26 µg/mL (≈ 3.47 µM) | 4.28 µg/mL (≈ 11.8 µM)
O=C1C(Nc2ccc(F)cc2)=CC(=O)c2ncncc21 | 0.04 µg/mL (≈ 0.149 µM) | 0.02 µg/mL (≈ 0.0743 µM) | 0.07 µg/mL (≈ 0.26 µM) | 0.05 µg/mL (≈ 0.186 µM) | 1.08 µg/mL (≈ 4.01 µM)
O=C1C(Nc2ccc(C(F)(F)F)cc2)=C(Cl)C(=O)c2ncncc21 | 0.29 µg/mL (≈ 0.82 µM) | 0.03 µg/mL (≈ 0.0848 µM) | 0.21 µg/mL (≈ 0.594 µM) | 0.06 µg/mL (≈ 0.17 µM) | 0.32 µg/mL (≈ 0.905 µM)
O=C1C(Nc2ccc(I)cc2)=C(Cl)C(=O)c2ncccc21 | 3.61 µg/mL (≈ 8.79 µM) | 1.27 µg/mL (≈ 3.09 µM) | 1.62 µg/mL (≈ 3.95 µM) | 3.3 µg/mL (≈ 8.04 µM) | 4.29 µg/mL (≈ 10.4 µM)
O=C1C(Cl)=C(Nc2ccc(Cl)cc2)C(=O)c2cnccc21 | 1.28 µg/mL (≈ 4.01 µM) | 0.18 µg/mL (≈ 0.564 µM) | 0.97 µg/mL (≈ 3.04 µM) | 0.66 µg/mL (≈ 2.07 µM) | 1.1 µg/mL (≈ 3.45 µM)
O=C1C(Cl)=C(Nc2ccc(Br)cc2)C(=O)c2cnccc21 | 0.22 µg/mL (≈ 0.605 µM) | 0.1 µg/mL (≈ 0.275 µM) | 0.29 µg/mL (≈ 0.798 µM) | 0.23 µg/mL (≈ 0.633 µM) | 1.96 µg/mL (≈ 5.39 µM)
CCOc1ccc(NC2=C(Cl)C(=O)c3ncncc3C2=O)cc1 | 0.3 µg/mL (≈ 0.91 µM) | 0.04 µg/mL (≈ 0.121 µM) | 0.22 µg/mL (≈ 0.667 µM) | 0.08 µg/mL (≈ 0.243 µM) | 0.33 µg/mL (≈ 1 µM)
O=C1C(Nc2ccc(Cl)cc2)=C(Cl)C(=O)c2ncccc21 | 3.31 µg/mL (≈ 10.4 µM) | 0.34 µg/mL (≈ 1.07 µM) | 1.33 µg/mL (≈ 4.17 µM) | 1.3 µg/mL (≈ 4.07 µM) | 5.03 µg/mL (≈ 15.8 µM)
O=C1C(Nc2ccc(Cl)cc2)=C(Cl)C(=O)c2ncncc21 | 0.4 µg/mL (≈ 1.25 µM) | 0.29 µg/mL (≈ 0.906 µM) | 0.31 µg/mL (≈ 0.968 µM) | 0.3 µg/mL (≈ 0.937 µM) | 0.3 µg/mL (≈ 0.937 µM)
CCOc1ccc(NC2=CC(=O)c3ncncc3C2=O)cc1 | 0.03 µg/mL (≈ 0.102 µM) | 0.02 µg/mL (≈ 0.0677 µM) | 0.02 µg/mL (≈ 0.0677 µM) | 0.02 µg/mL (≈ 0.0677 µM) | 0.16 µg/mL (≈ 0.542 µM)
Cc1ccc(NC2=CC(=O)c3ncncc3C2=O)cc1 | 0.13 µg/mL (≈ 0.49 µM) | 0.01 µg/mL (≈ 0.0377 µM) | 0.03 µg/mL (≈ 0.113 µM) | 0.02 µg/mL (≈ 0.0754 µM) | 0.02 µg/mL (≈ 0.0754 µM)
N#Cc1ccc(NC2=C(Cl)C(=O)c3ncncc3C2=O)cc1 | 1.68 µg/mL (≈ 5.41 µM) | 0.24 µg/mL (≈ 0.772 µM) | 0.31 µg/mL (≈ 0.998 µM) | 0.62 µg/mL (≈ 2 µM) | 1.34 µg/mL (≈ 4.31 µM)
O=C1C(Nc2ccc([N+](=O)[O-])cc2)=C(Cl)C(=O)c2ncncc21 | 15.4 µg/mL (≈ 46.4 µM) | 0.3 µg/mL (≈ 0.907 µM) | 1.28 µg/mL (≈ 3.87 µM) | 0.61 µg/mL (≈ 1.84 µM) | 2.77 µg/mL (≈ 8.38 µM)
O=C1C(Nc2ccccc2)=C(Cl)C(=O)c2ncncc21 | 0.28 µg/mL (≈ 0.98 µM) | 0.03 µg/mL (≈ 0.105 µM) | 0.19 µg/mL (≈ 0.665 µM) | 0.04 µg/mL (≈ 0.14 µM) | 0.33 µg/mL (≈ 1.16 µM)
O=C1C(Nc2ccccc2)=C(Cl)C(=O)c2ncccc21 | 1.33 µg/mL (≈ 4.67 µM) | 0.74 µg/mL (≈ 2.6 µM) | 1.34 µg/mL (≈ 4.71 µM) | 1.42 µg/mL (≈ 4.99 µM) | 2.3 µg/mL (≈ 8.08 µM)
Cc1ccc(NC2=C(Cl)C(=O)c3ncccc3C2=O)cc1 | 1.26 µg/mL (≈ 4.22 µM) | 0.33 µg/mL (≈ 1.1 µM) | 1.27 µg/mL (≈ 4.25 µM) | 0.42 µg/mL (≈ 1.41 µM) | 1.14 µg/mL (≈ 3.82 µM)
O=C1C(Nc2ccc(F)cc2)=C(Cl)C(=O)c2ncncc21 | 0.19 µg/mL (≈ 0.626 µM) | 0.04 µg/mL (≈ 0.132 µM) | 0.27 µg/mL (≈ 0.889 µM) | 0.08 µg/mL (≈ 0.263 µM) | 0.33 µg/mL (≈ 1.09 µM)
O=C1C(Nc2ccccc2)=CC(=O)c2ncncc21 | 0.01 µg/mL (≈ 0.0398 µM) | 0.01 µg/mL (≈ 0.0398 µM) | < 0.01 µg/mL | 0.01 µg/mL (≈ 0.0398 µM) | 0.02 µg/mL (≈ 0.0796 µM)
O=C1C(Nc2ccc(I)cc2)=C(Cl)C(=O)c2ncncc21 | 1.33 µg/mL (≈ 3.23 µM) | 0.28 µg/mL (≈ 0.68 µM) | 0.27 µg/mL (≈ 0.656 µM) | 0.3 µg/mL (≈ 0.729 µM) | 1.51 µg/mL (≈ 3.67 µM)
